Converted amounts (≈) assume the structure as drawn. Where two headings read alike, the source gives them in different places.
Assays:
[1] = tested on: standard bacteria strains; assay: Antimicrobial screening (MIC), standard bacteria strains; format: cell-based; details: MIC evaluation
Experimental: Obtained compounds were examined for antimicrobial potency. Firstly, all of them were screened for their minimal inhibitory concentrations (MICs). A suitable set of bacteria was used, including representative standard Gram-positive and Gram-negative rods (Table 2 and Table 3). For clarity, results are presented for menthol and thymol derivatives separately.
The antimicrobial assays were conducted using reference strains of bacteria derived from international microbe collections: American Type Culture Collection (ATCC) and National Collection of Type Culture (NCTC). The following standard strains of bacteria were used: Gram-positive—Staphylococcus aureus NCTC 4163, Staphylococcus aureus ATCC 25923, Staphylococcus aureus ATCC 6538, Staphylococcus aureus ATCC 29213, Staphylococcus epidermidis ATCC 12228, Staphylococcus epidermidis ATCC 35984, Gram-negative: Escherichia coli ATCC 25922, Pseudomonas aeruginosa ATCC 15442. […] Antimicrobial activity was examined by the Minimal Inhibitory Concentration (MIC) method under standard procedures provided by CLSI with some modifications. MIC was determined by the two-fold serial broth microdilution method in 96-well microtitration plates using Mueller–Hinton II broth medium (Becton Dickinson, Franklin Lakes, NJ, USA). The final inoculum of all studied bacteria was 10^6 CFU/mL (colony forming unit per millilitre). The stock solution of tested compounds was prepared in dimethyl sulfoxide (DMSO) and diluted to a maximum of 1% of solvent content with a sterile medium.

S. aureus ATCC 25923 = assay: MIC, broth microdilution, standard strain; format: cell-based, Staphylococcus aureus; details: 35 °C; for MIC: Staphylococcus aureus, ATCC25923, 19 h
[2] = tested on: S. epidermidis ATCC 35984; assay: MIC, broth microdilution, standard strain; format: cell-based, Staphylococcus epidermidis; details: 35 °C; for MIC: Staphylococcus epidermidis, ATCC35984, 19 h
E. coli ATCC 25922 = assay: MIC, broth microdilution, standard strain; format: cell-based, Escherichia coli; details: 35 °C; for MIC E. coli ATCC 25922: 19 h; for MIC: Escherichia coli, ATCC25922, 19 h
[3] = tested on: HaCaT (human immortal keratinocyte cell line); assay: MTT cytotoxicity assay; format: cell-based; details: 72 h, mean SD, read-out: IC50 HaCaT (normal cells)
Experimental: (§1) The human cell lines SW480 (primary colon cancer), SW620 (lymph node metastatic colon cancer from the same patient as primary cancer cells), HCT116 (colon carcinoma), HepG2 (liver cancer), and HaCaT (immortalized keratinocytes) were obtained from the American Type Culture Collection (ATCC, Rockville, MD, USA). The SW480, SW620 and HCT116 cells were grown in MEM (ThermoSci, Waltham, MA, USA), HepG2 and HaCaT in DMEM High Glucose (Biowest SAS, Nuaillé, France) supplemented with 10% foetal bovine serum (FBS), HEPES (20 mM), and antibiotics (100 U mL^−1 of Penicillin and 100 μg mL^−1 of Streptomycin). The cells were incubated in a humidified incubator at 37 °C/5% CO2, until 80–90% confluence was reached.
(§2) The cell viability was assessed by using of MTT salt [3-(4,5-dimethylthiazol-2-yl)-2,5-diphenyltetrazolium bromide] converted by mitochondrial dehydrogenase, occurring in living cells. The cells were seeded in 96-well plates at a density of 1 × 10^4 cells per well and allowed to adhere for 24 h at 37 °C in a CO2 humidified incubator. […]. The untreated cells were used as the control.
(§3) After 72 h incubation, the medium was replaced with 200 µL per well of free-serum medium containing 0.5 mg mL^−1 MTT and incubated for 4 h at 37 °C in a CO2 humidified incubator. Subsequently, the medium was removed and dimethyl sulfoxide (DMSO) with isopropanol (1:1) was added to dissolve the formazan crystals. The optical density was measured using UVM 340 reader (ASYS Hitech GmbH, Eugendorf, Austria) at a wavelength of 570 nm. The experiments were repeated three times. The cell viability was calculated as the percent of MTT reduced in treated cells versus control cells (untreated cells). The number of viable cells cultured without tested compounds was assumed as 100%. A decreased relative MTT level indicates decreased cell viability. The IC50 values were estimated using CompuSyn version 1.0.

[4] = tested on: HepG2 (human liver cancer); assay: MTT cytotoxicity assay; format: cell-based; details: mean SD
Experimental: as §1, §2, §3

[5] = tested on: SW480 (human primary colon cancer); assay: MTT cytotoxicity assay; format: cell-based; details: mean SD
Experimental: as §1, §2, §3

[6] = tested on: HCT116 (human colon cancer); assay: MTT cytotoxicity assay; format: cell-based; details: mean SD
Experimental: as §1, §2, §3

S. aureus ATCC 29213 = assay: MIC, broth microdilution, standard strain; format: cell-based, Staphylococcus aureus; details: 35 °C; for MIC: Staphylococcus aureus, ATCC29213, 19 h
[7] = tested on: SW620 (human metastatic colon cancer); assay: MTT cytotoxicity assay; format: cell-based; details: mean SD
Experimental: as §1
The cell viability was assessed by using of MTT salt [3-(4,5-dimethylthiazol-2-yl)-2,5-diphenyltetrazolium bromide] converted by mitochondrial dehydrogenase, occurring in living cells. […] The untreated cells were used as the control.
as §3, with “Subsequently,” for “After 72 h incubation, the medium was replaced with 200 µL per well of free-serum medium containing 0.5 mg mL^−1 MTT and incubated for 4 h at 37 °C in a CO2 humidified incubator. Subsequently,”

[8] = tested on: S. epidermidis ATCC 12228; assay: MIC, broth microdilution, standard strain; format: cell-based, Staphylococcus epidermidis; details: 35 °C; for MIC: Staphylococcus epidermidis, ATCC12228, 19 h
S. aureus NCTC 4163 = assay: MIC, broth microdilution, standard strain; format: cell-based, Staphylococcus aureus; details: 35 °C; for MIC: Staphylococcus aureus, NCTC4163, 19 h
S. aureus ATCC 6538 = assay: MIC, broth microdilution, standard strain; format: cell-based, Staphylococcus aureus; details: 35 °C; for MIC: Staphylococcus aureus, ATCC6538, 19 h
P. aeruginosa ATCC 15442 = assay: MIC, broth microdilution, standard strain; format: cell-based, Pseudomonas aeruginosa; details: 35 °C; for MIC: Pseudomonas aeruginosa, ATCC15442, 19 h
S. epidermidis KR 4243 = assay: MIC, broth microdilution, clinical strain; format: cell-based, Staphylococcus epidermidis; details: Staphylococcus epidermidis, KR4243, 19 h, 35 °C
E. coli 600 = assay: MIC, broth microdilution, clinical strain; format: cell-based, Escherichia coli; details: Escherichia coli, 600, 19 h, 35 °C
P. aeruginosa 659 = assay: MIC, broth microdilution, clinical strain; format: cell-based, Pseudomonas aeruginosa; details: Pseudomonas aeruginosa, 659, read-out: MIC P. aeruginosa 659, 19 h, 35 °C
S. aureus T 5595 = assay: MIC, broth microdilution, clinical strain; format: cell-based, Staphylococcus aureus; details: Staphylococcus aureus, T5595, 19 h, 35 °C
S. aureus T 5591 = assay: MIC, broth microdilution, clinical strain; format: cell-based, Staphylococcus aureus; details: Staphylococcus aureus, T5591, 19 h, 35 °C
E. coli 520 = assay: MIC, broth microdilution, clinical strain; format: cell-based, Escherichia coli; details: Escherichia coli, 520, 19 h, 35 °C
E. coli 510 = assay: MIC, broth microdilution, clinical strain; format: cell-based, Escherichia coli; details: Escherichia coli, 510, 19 h, 35 °C
S. pasteuri KR 4358 = assay: MIC, broth microdilution, clinical strain; format: cell-based, Staphylococcus pasteuri; details: Staphylococcus pasteuri, KR4358, 19 h, 35 °C

Row | Compound | Antimicrobial activity (in words) [1] | MIC E. coli ATCC 25922 (E. coli ATCC 25922) | MIC (S. aureus ATCC 25923) | MIC [2] | MIC (E. coli ATCC 25922) | IC50 ([3]; Homo sapiens, HaCaT) | IC50 ([4]; Homo sapiens, HepG2, 72 h) | IC50 ([5]; Homo sapiens, SW480, 72 h) | IC50 ([6]; Homo sapiens, HCT-116, 72 h) | MIC (S. aureus ATCC 29213) | IC50 ([7]; Homo sapiens, SW-620, 72 h) | MIC [8] | MIC (S. aureus NCTC 4163) | MIC (S. aureus ATCC 6538) | MIC (P. aeruginosa ATCC 15442) | other results
1 | 2-(2-isopropyl-5-methylphenoxy)-2-oxobutyl-1-cyclopropyl-6-fluoro-7-{4-[2-(2-isopropyl-5-methylphenoxy)-2-oxobutyl]piperazin-1-yl}-4-oxo-1,4-dihydroquinoline-3-carboxylate [Compound 15] | rather inactive | 128 µg/mL | – | – | – | – | – | – | – | – | – | – | – | – | – | MIC S. aureus ATCC 25923 (S. aureus ATCC 25923; 19 h): 64 µg/mL; MIC S. epidermidis ATCC 35984 ([2]; 19 h): 128 µg/mL; IC50 [3]: 67.1 ± 4.6 µM; IC50 ([4]; 72 h): 61.8 ± 1.5 µM; IC50 ([5]; 72 h): 40.8 ± 4.2 µM; IC50 ([6]; 72 h): 48.2 ± 5.3 µM; MIC S. aureus ATCC 29213 (S. aureus ATCC 29213; 19 h): 256 µg/mL; IC50 ([7]; 72 h): 57.4 ± 3.6 µM; MIC S. epidermidis ATCC 12228 ([8]; 19 h): 128 µg/mL; MIC S. aureus NCTC 4163 (S. aureus NCTC 4163; 19 h): 64 µg/mL; MIC S. aureus ATCC 6538 (S. aureus ATCC 6538; 19 h): 128 µg/mL; MIC P. aeruginosa ATCC 15442 (P. aeruginosa ATCC 15442; 19 h): >256 µg/mL
2 | CC(C)[C@@H]1CC[C@@H](C)C[C@H]1OC(=O)CCCCOC(=O)c1cn(C2CC2)c2cc(N3CCN(CCCCC(=O)O[C@@H]4C[C@H](C)CC[C@H]4C(C)C)CC3)c(F)cc2c1=O [Compound 7, 5-((1R,2S,5R)-2-isopropyl-5-methylcyclohexyloxy)-5-oxopentyl-1-cyclopropyl-6-fluoro-7-{4-[5-((1R,2S,5R)-2-isopropyl-5-methylcyclohexyloxy)-5-oxopentyl]piperazin-1-yl}-4-oxo-1,4-dihydroquinoline-3-carboxylate] | rather inactive | – | > 256 µg/mL | > 256 µg/mL | > 256 µg/mL | 25.6 ± 1.2 µM | 32.8 ± 3.1 µM | 45.5 ± 5.5 µM | 49.3 ± 6.5 µM | > 256 µg/mL | 54.1 ± 0.5 µM | > 256 µg/mL | > 256 µg/mL | > 256 µg/mL | > 256 µg/mL | –
3 | CC(C)[C@@H]1CC[C@@H](C)C[C@H]1OC(=O)CCCCCOC(=O)c1cn(C2CC2)c2cc(N3CCN(CCCCCC(=O)O[C@@H]4C[C@H](C)CC[C@H]4C(C)C)CC3)c(F)cc2c1=O [Compound 8, 6-((1R,2S,5R)-2-isopropyl-5-methylcyclohexyloxy)-6-oxohexyl-1-cyclopropyl-6-fluoro-7-{4-[6-((1R,2S,5R)-2-isopropyl-5-methylcyclohexyloxy)-6-oxohexyl]piperazin-1-yl}-4-oxo-1,4-dihydroquinoline-3-carboxylate] | rather inactive | – | > 256 µg/mL | > 256 µg/mL | > 256 µg/mL | 33.4 ± 3.8 µM | 30.2 ± 1.9 µM | 78.2 ± 5.8 µM | 31.6 ± 7.4 µM | > 256 µg/mL | 48.7 ± 2.8 µM | > 256 µg/mL | > 256 µg/mL | > 256 µg/mL | > 256 µg/mL | –
4 | Cc1ccc(C(C)C)c(OC(=O)CCCCCN2CCN(c3cc4c(cc3F)c(=O)c(C(=O)O)cn4C3CC3)CC2)c1 [Compound 14, 1-cyclopropyl-6-fluoro-7-{4-[6-(2-isopropyl-5-methylphenoxy)-6-oxohexyl]piperazin-1-yl}-4-oxo-1,4-dihydroquinoline-3-carboxylic acid] | – | 2 µg/mL (≈ 3.46 µM) | 1 µg/mL (≈ 1.73 µM) | 1 µg/mL (≈ 1.73 µM) | 2 to 4 µg/mL (≈ 3.46 to 6.92 µM) | 31.8 ± 1.9 µM | 44.4 ± 3.5 µM | 35.2 ± 1.2 µM | 38.1 ± 3.4 µM | 2 µg/mL (≈ 3.46 µM) | 53.1 ± 0.3 µM | 1 µg/mL (≈ 1.73 µM) | 1 µg/mL (≈ 1.73 µM) | 2 µg/mL (≈ 3.46 µM) | 16 µg/mL (≈ 27.7 µM) | MIC (S. epidermidis KR 4243): 2 µg/mL (≈ 3.46 µM); MIC (E. coli 600): 8 µg/mL (≈ 13.8 µM); MIC (P. aeruginosa 659): 64 µg/mL (≈ 111 µM); MIC (S. aureus T 5595): 2 µg/mL (≈ 3.46 µM); MIC (S. aureus T 5591): 4 µg/mL (≈ 6.92 µM); MIC (E. coli 520): 16 µg/mL (≈ 27.7 µM); MIC (E. coli 510): 128 µg/mL (≈ 222 µM); MIC (S. pasteuri KR 4358): 2 µg/mL (≈ 3.46 µM)

From paper PMC9224473 (International Journal of Molecular Sciences, 2022)
